Assay results published in ChEMBL document CHEMBL1212695, “An allosteric potentiator of M4 mAChR modulates hippocampal synaptic transmission” (Nat Chem Biol, 2008).
pEC50: −log10 of the molar value. Active and inactive are the calls of the source. The rule behind the calls is not given here.

How the values were obtained:
[1] = Agonist activity at muscarinic receptor in M4 receptor knock out mouse hippocampal CA1 pyramidal neuron assessed as reduction of inhibitory postsynaptic current amplitude at 2 uM by whole-cell electrophysiology in presence of carbachol relative to control; assay type: functional; conditions: Hippocampus
[2] = biological target: T1, Muscarinic acetylcholine receptor M4 (Rattus norvegicus, UniProt P08485); assay: Allosteric activation of rat recombinant muscarinic M4 receptor expressed in CHO cells assessed as potentiation of 10 uM acetylcholine-induced calcium mobilization after 1 hr by fluorescence assay; assay type: functional, cell-based
T1 sequence (P08485 whole entry): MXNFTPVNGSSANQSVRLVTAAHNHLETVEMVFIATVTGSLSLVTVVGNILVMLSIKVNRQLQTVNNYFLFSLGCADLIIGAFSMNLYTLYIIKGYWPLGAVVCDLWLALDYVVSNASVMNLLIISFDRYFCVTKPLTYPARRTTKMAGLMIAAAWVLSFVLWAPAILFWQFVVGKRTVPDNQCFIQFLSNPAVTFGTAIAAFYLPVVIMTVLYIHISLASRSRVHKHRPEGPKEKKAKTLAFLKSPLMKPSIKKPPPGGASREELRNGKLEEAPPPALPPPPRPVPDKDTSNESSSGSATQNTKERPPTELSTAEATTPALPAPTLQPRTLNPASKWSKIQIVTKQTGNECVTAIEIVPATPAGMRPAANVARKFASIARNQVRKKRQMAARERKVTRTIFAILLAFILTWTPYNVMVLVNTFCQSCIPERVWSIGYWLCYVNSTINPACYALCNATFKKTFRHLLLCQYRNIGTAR

[3] = biological target: T2, Muscarinic acetylcholine receptor M4 (Rattus norvegicus) (UniProt P08485); assay: Allosteric activation of rat recombinant muscarinic M4 receptor expressed in CHO cells assessed as potentiation of acetylcholine-induced increase in [35S]GTPgammaS binding at 10 um after 1 hr by equilibrium binding assay; assay type: functional, cell-based
T2 sequence (whole entry): T1 sequence (P08485 whole entry)

[4] = biological target: T3, Muscarinic acetylcholine receptor M5 (Rattus norvegicus) (UniProt P08911); assay: Agonist activity at rat recombinant muscarinic M5 receptor expressed in CHO cells assessed as induction of calcium mobilization at 10 uM after 1 hr by fluorescence assay; assay type: functional, cell-based
T3 sequence (whole entry): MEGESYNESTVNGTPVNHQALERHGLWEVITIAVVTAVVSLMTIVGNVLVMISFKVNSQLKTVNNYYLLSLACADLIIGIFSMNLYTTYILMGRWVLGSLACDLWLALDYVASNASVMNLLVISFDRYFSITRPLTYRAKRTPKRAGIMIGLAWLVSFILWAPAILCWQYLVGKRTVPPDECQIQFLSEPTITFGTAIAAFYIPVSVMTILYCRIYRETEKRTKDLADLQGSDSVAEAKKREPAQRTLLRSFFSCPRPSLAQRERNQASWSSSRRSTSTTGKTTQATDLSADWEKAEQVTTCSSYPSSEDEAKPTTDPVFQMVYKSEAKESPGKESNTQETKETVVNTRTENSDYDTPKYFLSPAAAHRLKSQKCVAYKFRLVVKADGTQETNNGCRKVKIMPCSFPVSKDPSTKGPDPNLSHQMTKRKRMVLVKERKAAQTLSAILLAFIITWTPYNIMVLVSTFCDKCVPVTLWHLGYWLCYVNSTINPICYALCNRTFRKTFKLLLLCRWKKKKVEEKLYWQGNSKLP

[5] = biological target: T4, Muscarinic acetylcholine receptor M4 (Mus musculus) (UniProt P32211); assay: Agonist activity at muscarinic M4 receptor in wild type mouse hippocampal CA1 pyramidal neuron assessed as reduction of inhibitory postsynaptic current amplitude at 2 uM by whole-cell electrophysiology relative to control; assay type: functional, tissue-based; conditions: Hippocampus
T4 sequence (whole entry): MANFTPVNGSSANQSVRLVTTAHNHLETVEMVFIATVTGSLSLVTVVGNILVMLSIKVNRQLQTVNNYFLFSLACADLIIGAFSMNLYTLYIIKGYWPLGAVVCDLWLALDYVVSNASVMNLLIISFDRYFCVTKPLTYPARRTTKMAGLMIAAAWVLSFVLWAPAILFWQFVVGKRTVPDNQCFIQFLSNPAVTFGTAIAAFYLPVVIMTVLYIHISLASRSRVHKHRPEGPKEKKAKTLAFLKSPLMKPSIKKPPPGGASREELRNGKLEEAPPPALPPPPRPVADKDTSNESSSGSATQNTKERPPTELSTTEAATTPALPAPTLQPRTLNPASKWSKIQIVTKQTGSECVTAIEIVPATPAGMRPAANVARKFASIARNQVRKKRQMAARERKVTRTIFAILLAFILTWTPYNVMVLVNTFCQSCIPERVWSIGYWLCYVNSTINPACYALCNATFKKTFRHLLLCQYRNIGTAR

[6] = biological target: T2, Muscarinic acetylcholine receptor M4 (Rattus norvegicus); assay: Agonist activity at muscarinic M4 receptor in Sprague-Dawley rat hippocampal CA1 pyramidal neuron assessed as increase in carbachol-induced reduction in excitatory postsynaptic current at 10 uM by whole-cell electrophysiology relative to control; assay type: functional, tissue-based; parameters: scale not given: the % may be the effect or the level left; conditions: Hippocampus
[7] = biological target: T2, Muscarinic acetylcholine receptor M4 (Rattus norvegicus); assay: Allosteric activation of rat recombinant muscarinic M4 receptor expressed in CHO cells assessed as […] in acetylcholine EC50 for induction of calcium mobilization at 10 uM after 1 hr by fluorescence assay; assay type: functional, cell-based
[8] = Agonist activity at muscarinic receptor in M4 receptor knock out mouse hippocampal CA1 pyramidal neuron assessed as reduction of excitatory postsynaptic current amplitude at 5 uM by whole-cell electrophysiology in presence of carbachol relative to control; assay type: functional; conditions: Hippocampus
[9] = biological target: T2, Muscarinic acetylcholine receptor M4 (Rattus norvegicus); assay: Agonist activity at muscarinic M4 receptor in Sprague-Dawley rat hippocampal CA1 pyramidal neuron assessed as reduction of inhibitory postsynaptic current at 0.5 uM by whole-cell electrophysiology relative to control; assay type: functional, tissue-based; conditions: Hippocampus
[10] = biological target: T2, Muscarinic acetylcholine receptor M4 (Rattus norvegicus); assay: Allosteric activation of rat recombinant muscarinic M4 receptor expressed in CHO cells assessed as fold decrease in acetylcholine Ki for displacement of [3H]NMS from active binding site after 2 hrs by microplate scintillation counting; assay type: cell-based
[11] = biological target: T4, Muscarinic acetylcholine receptor M4 (Mus musculus); assay: Agonist activity at muscarinic M4 receptor in wild type mouse hippocampal CA1 pyramidal neuron assessed as excitatory postsynaptic current amplitude at 5 uM by whole-cell electrophysiology relative to control; assay type: functional, tissue-based; conditions: Hippocampus
[12] = biological target: T3, Muscarinic acetylcholine receptor M5 (Rattus norvegicus); assay: Allosteric activation of rat recombinant muscarinic M5 receptor expressed in CHO cells assessed as potentiation of acetylcholine-induced calcium mobilization at 10 uM after 1 hr by fluorescence assay; assay type: functional, cell-based
[13] = biological target: T2, Muscarinic acetylcholine receptor M4 (Rattus norvegicus); assay: Allosteric activation of rat recombinant muscarinic M4 receptor expressed in CHO cells assessed as fold decrease in acetylcholine Ki for displacement of [3H]NMS from active binding site at 10 uM after 2 hrs by microplate scintillation counting; assay type: cell-based
[14] = biological target: T2, Muscarinic acetylcholine receptor M4 (Rattus norvegicus); assay: Agonist activity at muscarinic M4 receptor in Sprague-Dawley rat hippocampal CA1 pyramidal neuron assessed as reduction of excitatory postsynaptic current at 100 uM by whole-cell electrophysiology relative to control; assay type: functional, tissue-based; conditions: Hippocampus
[15] = biological target: T2, Muscarinic acetylcholine receptor M4 (Rattus norvegicus); assay: Agonist activity at muscarinic M4 receptor in Sprague-Dawley rat hippocampal CA1 pyramidal neuron assessed as reduction of inhibitory postsynaptic current at 100 uM by whole-cell electrophysiology relative to control; assay type: functional, tissue-based; conditions: Hippocampus
[16] = biological target: T4, Muscarinic acetylcholine receptor M4 (Mus musculus); assay: Agonist activity at muscarinic M4 receptor in wild type mouse hippocampal CA1 pyramidal neuron assessed as increase in carbachol-induced reduction in excitatory postsynaptic current at 5 uM by whole-cell electrophysiology relative to control; assay type: functional, tissue-based; parameters: scale not given: the % may be the effect or the level left; conditions: Hippocampus
[17] = biological target: T2, Muscarinic acetylcholine receptor M4 (Rattus norvegicus); assay: Agonist activity at muscarinic M4 receptor in Sprague-Dawley rat hippocampal CA1 pyramidal neuron assessed as inhibitory postsynaptic current amplitude at 5 uM by whole-cell electrophysiology relative to control; assay type: functional, tissue-based; parameters: scale not given: the % may be the effect or the level left; conditions: Hippocampus

SMILES: Cc1cc(C)c2c(N)c(C(=O)NCc3ccc(Cl)cc3)sc2n1
- inhibition at 2 µM [1]: 60.2%
- pEC50 [2]: 6.40
- Activity [3]: 43%
- Activity [4]: inactive
- inhibition [5]: 56%
- Activity [6]: 42.7%
- fold change (FC) [7]: 47
- inhibition at 5 µM [8]: 77.5%
- inhibition [9]: 62.2%
- Activity [10]: Dose-dependent effect
- Activity [11]: 102%
- Activity [12]: inactive
- fold change (FC) [13]: 14
- inhibition [14]: 16.1%
- inhibition [15]: 10.9%
- Activity [16]: 39.8%
- Activity [17]: 98.5%
